Measurements taken from PMC11352099 (RSC Medicinal Chemistry, 2024).
Values joined by “and” are separate entries in the source; they are usually repeats but may differ in a detail not shown here. Equal values may be shown once. Read-outs that look alike come from different tables or passages of the source.

How the values were obtained:
SARS-CoV-2 nsp14 MTase = SARS-CoV-2 nsp14 MTase (Severe acute respiratory syndrome coronavirus 2, UniProt P0DTD1); test: biochemical; assay type: biochemical; conditions: for Hill slope: Table S1, dose-response curve, variable slope model
[1] = microsomes, 0.75 h, 10 µM, pH 7.4
human RNMT = human RNMT (Homo sapiens, UniProt O43148); test: Off-target inhibition of human RNMT; assay type: biochemical; conditions: 25 μM concentration of inhibitor
From the text: Human cells rely on several MTases; therefore, it is necessary to assess the possible off-target effect. […]

[2] = 120 min, 10 μM
[3] = microsomes, 0.75 h, 10 µM, pH 7.4; remark: listed apart in the source
in vitro = conditions: human
Protocol: (§1) 3.5. Caco-2 permeability assay
(§2) Transepithelial bi-directional transport of compounds (10 µM, pH 7.4/7.4) was tested on 21-day differentiated Caco-2 monolayers. Briefly, the cells were seeded at a density of 67 ,500 cells per 96-well plate insert (Millicell®, Merck KGaA, Darmstadt, Germany). They were left to differentiate for 21 days with medium exchange every 2–3 days. Prior to the experiment, the medium from both apical and basolateral well was exchanged for HBSS buffer (containing 10 mM HEPES and 25 mM glucose) and left to equilibrate for 30 min. Compound permeability was assayed by replacing pure HBSS with HBSS containing 10 μM compounds and 220 μM Lucifer yellow (LY) solution in an apical insert (A to B transport) or in a basolateral well (B to A transport). The tre ated cells were then returned to the incubator for 2 h at 37 °C. After that, samples were collected from both apical inserts and basolateral wells and analyzed using LC -MS/MS (SCIEX Triple Quad™ 7500 QTRAP® Ready). LC separation was done on Synergi 4µm Fusion 50 × 2 mm column (Phenomenex) using a water/acetonitrile gradient with 0.1% formic acid starting from 2 to 98% for 4.5 min.
(§3) The apparent permeability coefficient (Papp) was calculated from t he following equation: Papp = (dQ / dt) / C0 * A, where dQ/dt is the rate of absorption of the drug across the cells, C0 is the donor compartment concentration at time zero, and A is the area of the monolayer. Efflux ratio was expressed as (Papp B -A) / (Papp A-B). Recovery (%) was determined as (total compound mass i n donor and receiver compartments at the end of the incubation / initial compound mass in the donor compartment) x 100. The data represent means ± SD of two independent experiments performed in triplicate. […]
(§4) were used as control compounds.

Caco-2 monolayers = test: in vitro; conditions: Caco-2
Protocol: as §1, §2, §3, §4

[4] = 120 min, 10 μM; remark: listed apart in the source
[5] = system: SARS-CoV-2 strain hCoV-19/Czech Republic/NRL_6632_2/2020; test: microbe, parasite or virus in culture; assay type: cell-based; conditions: Severe acute respiratory syndrome coronavirus 2; Calu-3 cell line; read-out: EC50 (antiviral effect)
[6] = Table 1 and text, N.I., no inhibition, read-out: IC50
[7] = Table 1 and text, N.I., no inhibition
[8] = Table S1, read-out: IC50 (inhibitory activity)

Sequence of human RNMT (O43148 whole entry): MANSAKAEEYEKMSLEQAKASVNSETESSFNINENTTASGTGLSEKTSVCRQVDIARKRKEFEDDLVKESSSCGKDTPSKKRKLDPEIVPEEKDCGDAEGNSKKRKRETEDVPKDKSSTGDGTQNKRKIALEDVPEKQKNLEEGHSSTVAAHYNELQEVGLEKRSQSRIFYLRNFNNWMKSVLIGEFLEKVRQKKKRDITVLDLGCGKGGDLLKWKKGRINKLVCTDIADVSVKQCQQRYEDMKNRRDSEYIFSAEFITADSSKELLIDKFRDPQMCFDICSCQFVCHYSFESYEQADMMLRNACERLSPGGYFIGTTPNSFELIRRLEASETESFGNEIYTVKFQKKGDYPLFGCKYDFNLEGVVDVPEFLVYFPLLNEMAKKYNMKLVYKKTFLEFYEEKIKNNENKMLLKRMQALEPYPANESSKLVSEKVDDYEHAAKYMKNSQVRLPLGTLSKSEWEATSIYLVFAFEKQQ

Question: For `COC(=O)c1ccc(NC(=O)[C@H]2O[C@@H](n3cnc4c(N)ncnc43)[C@H](O)[C@@H]2O)cc1` [12a], which IC50 (SARS-CoV-2 nsp14 MTase; [6]) is on record?
Answer: The IC50 was greater than 25000 nM.

Question: Which IC50 (SARS-CoV-2 nsp14 MTase; [7]) does the source give for `NC(=O)c1ccc(NC(=O)[C@H]2O[C@@H](n3cnc4c(N)ncnc43)[C@H](O)[C@@H]2O)cc1` [12b] here?
Answer: Its IC50 is “N.I”.

Question: Which IC50 (SARS-CoV-2 nsp14 MTase; [7]) does the source give for `COc1cccc(NC(=O)[C@H]2O[C@@H](n3cnc4c(N)ncnc43)[C@H](O)[C@@H]2O)c1` [12c] here?
Answer: Its IC50 is “N.I”.

Question: For `COc1ccc(NC(=O)[C@H]2O[C@@H](n3cnc4c(N)ncnc43)[C@H](O)[C@@H]2O)cc1O` [12d], which IC50 (SARS-CoV-2 nsp14 MTase; [6]) is on record?
Answer: Its IC50 is greater than 25000 nM.

Question: Which IC50 (SARS-CoV-2 nsp14 MTase; [7]) does the source give for `Cc1ccc(NC(=O)[C@H]2O[C@@H](n3cnc4c(N)ncnc43)[C@H](O)[C@@H]2O)cc1O` [12e] here?
Answer: Its IC50 is “N.I”.

Question: Which IC50 (SARS-CoV-2 nsp14 MTase; [7]) does the source give for `COC(=O)c1cc(NC(=O)[C@H]2O[C@@H](n3cnc4c(N)ncnc43)[C@H](O)[C@@H]2O)ccc1F` [12f] here?
Answer: The IC50 was “N.I”.

Question: For `Nc1ncnc2c1ncn2[C@@H]1O[C@H](C(=O)Nc2ccc(-c3ccoc3)cc2)[C@@H](O)[C@H]1O` [12g, (2S,3S,4R,5R)-5-(6-Amino-9H-purin-9-yl)-N-(4-(furan-3-yl)phenyl)-3,4-dihydroxytetrahydrofuran-2-carboxamide], which IC50 (SARS-CoV-2 nsp14 MTase; [7]) is on record?
Answer: The IC50 was “N.I”.

Question: With `Nc1ncnc2c1ncn2[C@@H]1O[C@H](C(=O)Nc2ccc(-c3ccsc3)cc2)[C@@H](O)[C@H]1O` [12h] as the compound, how does the IC50 (SARS-CoV-2 nsp14 MTase; [7]) read?
Answer: Its IC50 is “N.I”.

Question: Which IC50 (SARS-CoV-2 nsp14 MTase; [7]) does the source give for `Nc1ncnc2c1ncn2[C@@H]1O[C@H](C(=O)Nc2ccc(-c3cn[nH]c3)cc2)[C@@H](O)[C@H]1O` [12i] here?
Answer: Its IC50 is “N.I”.

Question: Which IC50 (SARS-CoV-2 nsp14 MTase; [7]) does the source give for `Cc1noc(C)c1-c1ccc(NC(=O)[C@H]2O[C@@H](n3cnc4c(N)ncnc43)[C@H](O)[C@@H]2O)cc1` [12j] here?
Answer: Its IC50 is “N.I”.

Question: Which results are given for `Nc1ncnc2c1ncn2[C@@H]1O[C@H](C(=O)Nc2ccc3c(c2)OCCO3)[C@@H](O)[C@H]1O` [12k]?
Answer: IC50 (SARS-CoV-2 nsp14 MTase; [6]): 1800 nM and 1810 nM; Hill slope (SARS-CoV-2 nsp14 MTase): -1.01; IC50 (SARS-CoV-2 nsp14 MTase; [8]): 1810 nM

Question: With `Cc1cc(=O)oc2cc(NC(=O)[C@H]3O[C@@H](n4cnc5c(N)ncnc54)[C@H](O)[C@@H]3O)ccc12` [12l] as the compound, how does the “Microsomal stability % of the parent compound after 45 min, Mouse” value [1] read?
Answer: Its value is 95 ± 5.0%.

Question: What about the IC50 (SARS-CoV-2 nsp14 MTase; [6]) of the same compound?
Answer: The IC50 was 360 ± 40 nM.

Question: What about the Hill slope (SARS-CoV-2 nsp14 MTase) of the same compound?
Answer: Its Hill slope is -1.39.

Question: And the IC50 (SARS-CoV-2 nsp14 MTase; [8])?
Answer: Its IC50 is 364 nM.

Question: What about the “inhibitory activity against RNMT” value (human RNMT) of the same compound?
Answer: The value was “None of the tested compounds exhibited any inhibitory activity”.

Question: What about the “Plasma stability % of the parent compound after 120 min, Human” value [2] of the same compound?
Answer: The value was 103 ± 3.3%.

Question: What about the “Microsomal stability % of the parent compound after 45 min, Human” value [3] of the same compound?
Answer: Its value is 104 ± 4.1%.

Question: And the efflux ratio at 2 h, 10 µM (in vitro; Caco-2)?
Answer: The efflux ratio at 2 h, 10 µM was 3.4.

Question: And the recovery at 2 h, 10 µM (in vitro; Caco-2, Recovery (%) A-B)?
Answer: Its recovery at 2 h, 10 µM is 85%.

Question: What about the recovery at 2 h, 10 µM (in vitro; Caco-2, Recovery (%) B-A) of the same compound?
Answer: Its recovery at 2 h, 10 µM is 83%.

Question: What about the Papp A→B at 2 h, 10 µM (in vitro; Caco-2, pH 7.4) of the same compound?
Answer: Its Papp A→B at 2 h, 10 µM is 3.1 ± 1.3 ×10⁻⁶ cm/s.

Question: What about the Papp B→A at 2 h, 10 µM (in vitro; Caco-2, pH 7.4) of the same compound?
Answer: The Papp B→A at 2 h, 10 µM was 10.7 ± 2.5 ×10⁻⁶ cm/s.

Question: What about the “Papp A-B” value (Caco-2 monolayers) of the same compound?
Answer: The value was 3.1 ± 1.3 cm/s x 10-6.

Question: What about the “Papp B-A” value (Caco-2 monolayers) of the same compound?
Answer: The value was 10.7 ± 2.5 cm/s x 10-6.

Question: And the “Plasma stability % of the parent compound after 120 min, Mouse” value [4]?
Answer: Its value is 93 ± 2.7%.

Question: What about the EC50 [5] of the same compound?
Answer: Its EC50 is greater than 50000 nM.
